This is an account of results in patent US10322112B2, “Compound combinations for attenuation of bacterial virulence” (priority 2016, dated 2019).

Each structure is given as a SMILES string. pEC50, pIC50: −log10 of the molar value. Several values for one entry are separate records, joined by “and”; a condition that tells them apart may be missing. Equal entries are not always repeated.

As usually defined, the pEC50 is the negative decadic logarithm of the EC50, by convention in mol/L. Read a low pEC50 as a large EC50. The term pIC50 denotes the IC50 on a negative log10 scale, so that one unit is a factor of ten.

One assay concerns P. aeruginosa (PAO1). Put plainly: P. aeruginosa growth curves. Type of assay: cell-based, Pseudomonas aeruginosa. The settings on record: complete MOPS Glutamate, 100 μM. As for the experimental part:
FIGS. 2A-2D are wild-type P. aeruginosa growth curves in the presence of test compounds in various media. Related to FIGS. 3, 6A and 6B, 7A and 7B, and 12. (FIG. 2A) Growth curves in complete MOPS/Glutamate. (FIG. 2B) Growth curves in complete MOPS/Glucose. […] (FIG. 2D) Growth curves in SCFM2. P. aeruginosa (PAO1) was grown in a manner identical to the pyocyanin assay (see Experimental Procedures). At each time point, growth was measured by either reading OD600 (for MOPS media) or by serially diluting culture aliquots, plating on LB agar, and counting CFUs after overnight incubation at 37° C. (for SCFM2). Compound concentrations are 100 microM for compounds 1, 2, and 3 and 25 microM for compound 4 in all experiments unless noted otherwise. Error bars represent the standard error of at least two biological replicates (n≥2). BHL=N-butyryl L-homoserine lactone (Cayman Chemicals).
B. Bacterial Strains and Growth Conditions. Protocols for construction of genetic knockout strains are described below in Example 2. All reagents for bacterial culture were purchased from Sigma-Aldrich unless indicated otherwise. Bacteria were routinely cultured in Luria-Bertani broth (LB) at 37° C. with shaking at 200 rpm. Freezer stocks of bacterial strains were maintained at −80° C. in 1:1 LB:glycerol. Bacterial growth was routinely assessed by measuring the culture cell density according to absorbance at 600 nm (OD600341). Cell growth in simulated cystic fibrosis sputum medium (SCFM2) was determined by serially diluting assay cultures, plating on LB agar, and counting the number of colony forming units (CFU) appearing after overnight incubation at 37° C.

The target of assay [1] is T1, RhlR (Pseudomonas aeruginosa, UniProt P54292).
T1 construct: expressed in transfected cells; host or cells: E. coli JLD271
Nature of the assay: P. aeruginosa reporter assay, RhlR agonism (native ligand). It counts as cell-based. As for the experimental part:
(§1) P. aeruginosa reporter assays: Primary assays for RhlR activity in P. aeruginosa were performed as previously reported for LasR, [33] with the following modifications: OdDHL was added to the subculture to a final concentration of 100 nm immediately before it was dispensed into plates to induce expression of RhlR. For RhlR antagonism assays, synthetic ligand (100 mm) was screened against BHL at its EC50 (30 mm). For RhlR agonism assays, synthetic ligand (100 mm) was screened alongside and compared to BHL (at 900 mm) for the system. Dose-response reporter gene assays were performed according to these protocols by using various concentrations of compound.
For orientation: In a reporter assay the amount or activity of a reporter protein is the signal.

Assay [2] addresses T1, RhlR. Put plainly: E. coli reporter gene antagonism assay, RhlR. It counts as cell-based. As for the experimental part: Percent agonism of a given non-native inducer in a given bacterium and QS system receptor is measured with resepct to the maximum level of agonism (activation) by the native ligand of that receptor in the given bacterium. Percent antagonism is measured in competitive assays. The QS system of interest is activated to 100% with added or endogenous native ligand and the % antagonism of the non-native inducer is assessed with respect to 100% activation by the native inducer. The native ligand which induces LasR is OdDHL, which induces RhlR is BHL and which induces PqsR is PQS. As described herein and in cited references, assays for assessment of % agonism or % atangonism may be performed in E. coli systems (heterologous) or in the bacterium of interest, e.g., Pseudomonas. Dependent upon the assay system employed native ligand may be endogenously present or it may be exogenously supplied to the assay system. […] In antagonism assays using the native strains with functional QS systems, e.g., those of P. aeruginosa, endogenous native ligand is made in the system, so no native ligand is added. In native strains having one or more non-functional QS systems (mutant strains), e.g., P. aeruginosa mutants with non-functional QS systems, native ligand is added at about 10-100× the EC50 of the native ligand. In the agonism assay, native ligand is added as a control. Details of the assays are provided herein in Example 9 and in references cited in Example 9.

The target of assay [3] is T1, RhlR. Nature of the assay: P. aeruginosa reporter assay, RhlR antagonism. Type of assay: cell-based. As to the method:
as §1

T1 sequence (P54292 whole entry): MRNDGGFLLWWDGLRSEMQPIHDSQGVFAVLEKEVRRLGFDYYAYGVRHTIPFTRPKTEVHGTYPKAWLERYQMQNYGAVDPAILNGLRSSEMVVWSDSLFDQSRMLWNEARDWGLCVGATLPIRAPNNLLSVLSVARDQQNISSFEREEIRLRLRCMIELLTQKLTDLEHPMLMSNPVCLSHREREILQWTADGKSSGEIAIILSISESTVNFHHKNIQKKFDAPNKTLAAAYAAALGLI

Consider `CCCC(=O)N[C@H]1CCOC1=O` [BHL, N-butyryl L-homoserine lactone, reference compound], for which the “growth in MOPS Glutamate” value in the assay with P. aeruginosa (PAO1) was “also produced the growth delay”. The pEC50 on RhlR [1] was about 5.10.

Take `O=C(COc1ccc(I)cc1)N[C@H]1CCSC1=O` [RN22]: the pIC50 is 4.71 against RhlR [2]; 4.50 and 4.51 at RhlR [3] (IC50, antagonism, P. aeruginosa reporter, 95% CI: 19.6 μM-50.4 μM). Besides, the “concentration blocking native ligand activity by 50%, relative to native ligand EC50” value at RhlR [3] (IC50 in P. aeruginosa compared with EC50 of native RhlR ligand) is “less than 4 fold”.
